System: ACE
Assay: ACE inhibition (IC50) of synthesized peptides
Type: biochemical
Experimental: The ACE inhibition activity was assayed according to the method 15 of Matsui et al. (Matsui, T. et al. (1992) Biosci. Biotech. Biochem. 56: 517-518) with the modifications described below.
For each sample 75 μl 3 mM hippuryl histidine leucine (Hip-His-Leu, Sigma chemicals Co.; the chemical was dissolved in 250 mM Borate containing 200 mM NaCl, pH 8.3); 20 μl 0.1 U/ml ACE (obtained at Sigma) or H2 O, and 25 μl sample or H2O were mixed (see Table 1). The mixtures were incubated at 37° C. and stopped after 30 min by adding 125 μl 0.5 M HCl. Subsequently, 225 μl bicine/NaOH solution (1 M NaOH : 0.25 M bicine (4:6)) was added, followed by […] 0.1 M TNBS (2,4,6-Trinitrobenzenesulfonic acid, Fluka, Switzerland; in 0.1 M Na2HPO4). After incubation for 20 min. at 37° C., 4 ml 4 mM Na2SO3 in 0.2 M NaH2PO4 was added and the absorbance at 416 nm was measured with UV/Vis spectrophotometer (Shimadzu UV-1601 with a CPS controller, Netherlands). The amount of ACE inhibition (ACEI) activity was calculated as a percentage of inhibition compared with the conversion rate of ACE in the absence of an inhibitor: ACEI (%) (((C1-C2)-(S1-S2))/(C1-C2))*100 (1) wherein • C1=Absorbance without ACE inhibitory component (=max. ACE activity) [AU]. • C2=Absorbance without ACE inhibitory component and without ACE (background) [AU]. • S1=Absorbance in the presence of ACE and the ACE inhibitory component [AU]. • S2=Absorbance in the presence of the ACE inhibitory component, but without ACE [AU].

Row | Substance | IC50 [µM]
1 | Leu-Pro-Val [LPV] | > 1000
2 | KVLPVP [Lys-Val-Leu-Pro-Val-Pro] | 5
3 | Val-Leu-Pro [VLP] | 120

The remaining lines, values ahead:

Row | IC50 [µM] | Substance
4 | 1000 | KVLPVPQ [Lys-Val-Leu-Pro-Val-Pro-Gln]
5 | > 1000 | Leu-Pro [LP]
6 | 250 | Leu-Pro-Val-Pro (LPVP; printed: Leu-Pro-Val-Pro)

— patent US20050008751A1, “Fermented milk product” (Unilever Bestfoods, North America, priority 2001, published 2005)
